Experimental data as given in ChEMBL document CHEMBL4308841, “Synthesis, in vitro antiproliferative activity, and kinase inhibitory effects of pyrazole-containing diarylureas and diarylamides” (Eur J Med Chem, 2018).

Legend:
[1] = tested on: CCRF-CEM; experiment: Growth inhibition of human CCRF-CEM cells assessed as cell growth at 100 uM incubated for 48 hrs by sulforhodamine B assay relative to control; assay type: functional; conditions: read-out: Activity
[2] = tested on: BT-549; experiment: Growth inhibition of human BT549 cells assessed as cell growth at 1 uM incubated for 48 hrs by sulforhodamine B assay relative to control; assay type: functional; conditions: BT-549, 48 h, read-out: Activity
[3] = tested on: IGROV-1; experiment: Growth inhibition of human IGROV1 cells incubated for 48 hrs by sulforhodamine B assay; assay type: functional, cell-based; conditions: IGROV-1, 48 h
[4] = tested on: PC-3; experiment: Growth inhibition of human PC3 cells incubated for 48 hrs by sulforhodamine B assay; assay type: functional, cell-based; conditions: PC-3, 48 h
[5] = tested on: RXF 393; experiment: Growth inhibition of human RXF393 cells assessed as cell growth at 1 uM incubated for 48 hrs by sulforhodamine B assay relative to control; assay type: functional; conditions: RXF 393, 48 h, read-out: Activity
[6] = tested on: MCF7; experiment: Growth inhibition of human MCF7 cells assessed as cell growth at 1 uM incubated for 48 hrs by sulforhodamine B assay relative to control; assay type: functional; conditions: MCF7, 48 h, read-out: Activity
[7] = tested on: HCC 2998; experiment: Growth inhibition of human HCC2998 cells assessed as cell growth at 100 uM incubated for 48 hrs by sulforhodamine B assay relative to control; assay type: functional; conditions: HCC 2998, 48 h, read-out: Activity
[8] = tested on: M14; experiment: Growth inhibition of human M14 cells incubated for 48 hrs by sulforhodamine B assay; assay type: functional, cell-based; conditions: M14, 48 h
[9] = tested on: ACHN; experiment: Growth inhibition of human ACHN cells assessed as cell growth at 1 uM incubated for 48 hrs by sulforhodamine B assay relative to control; assay type: functional; conditions: read-out: Activity
[10] = tested on: SW-620; experiment: Growth inhibition of human SW620 cells assessed as cell growth at 0.01 uM incubated for 48 hrs by sulforhodamine B assay relative to control; assay type: functional; conditions: SW-620, 48 h, read-out: Activity
[11] = tested on: HL-60(TB); experiment: Growth inhibition of human HL-60(TB) cells assessed as cell growth at 0.1 uM incubated for 48 hrs by sulforhodamine B assay relative to control; assay type: functional; conditions: HL-60, 48 h, read-out: Activity
[12] = tested on: SR; experiment: Growth inhibition of human SR cells incubated for 48 hrs by sulforhodamine B assay; assay type: functional, cell-based
[13] = tested on: A498; experiment: Growth inhibition of human A498 cells assessed as cell growth at 0.1 uM incubated for 48 hrs by sulforhodamine B assay relative to control; assay type: functional; conditions: A498, 48 h, read-out: Activity
[14] = tested on: HCT-116; experiment: Growth inhibition of human HCT116 cells assessed as cell growth at 1 uM incubated for 48 hrs by sulforhodamine B assay relative to control; assay type: functional; conditions: HCT-116, 48 h, read-out: Activity
[15] = tested on: SN12C; experiment: Growth inhibition of human SN12C cells assessed as cell growth at 100 uM incubated for 48 hrs by sulforhodamine B assay relative to control; assay type: functional; conditions: read-out: Activity
[16] = tested on: 786-0; experiment: Growth inhibition of human 786-0 cells incubated for 48 hrs by sulforhodamine B assay; assay type: functional, cell-based; conditions: 786-0, 48 h
[17] = tested on: NCI/ADR-RES; experiment: Growth inhibition of human NCI/ADR-RES cells incubated for 48 hrs by sulforhodamine B assay; assay type: functional, cell-based
[18] = tested on: NCI-H460; experiment: Growth inhibition of human NCI-H460 cells incubated for 48 hrs by sulforhodamine B assay; assay type: functional, cell-based; conditions: NCI-H460, 48 h
[19] = tested on: MDA-MB-468; experiment: Growth inhibition of human MDA-MB-468 cells assessed as cell growth at 0.01 uM incubated for 48 hrs by sulforhodamine B assay relative to control; assay type: functional; conditions: MDA-MB-468, 48 h, read-out: Activity
[20] = tested on: RXF 393; experiment: Growth inhibition of human RXF393 cells assessed as cell growth at 0.1 uM incubated for 48 hrs by sulforhodamine B assay relative to control; assay type: functional; conditions: RXF 393, 48 h, read-out: Activity
[21] = tested on: 786-0; experiment: Growth inhibition of human 786-0 cells assessed as cell growth at 0.01 uM incubated for 48 hrs by sulforhodamine B assay relative to control; assay type: functional; conditions: 786-0, 48 h, read-out: Activity
[22] = tested on: RPMI-8226; experiment: Growth inhibition of human RPMI8226 cells assessed as cell growth at 1 uM incubated for 48 hrs by sulforhodamine B assay relative to control; assay type: functional; conditions: RPMI-8226, 48 h, read-out: Activity
[23] = tested on: BT-549; experiment: Growth inhibition of human BT549 cells assessed as cell growth at 0.01 uM incubated for 48 hrs by sulforhodamine B assay relative to control; assay type: functional; conditions: BT-549, 48 h, read-out: Activity
[24] = tested on: A498; experiment: Growth inhibition of human A498 cells incubated for 48 hrs by sulforhodamine B assay; assay type: functional, cell-based; conditions: A498, 48 h
[25] = tested on: OVCAR-3; experiment: Growth inhibition of human OVCAR3 cells incubated for 48 hrs by sulforhodamine B assay; assay type: functional, cell-based; conditions: OVCAR-3, 48 h
[26] = tested on: MOLT-4; experiment: Growth inhibition of human MOLT4 cells assessed as cell growth at 1 uM incubated for 48 hrs by sulforhodamine B assay relative to control; assay type: functional; conditions: MOLT-4, 48 h, read-out: Activity
[27] = tested on: UACC-257; experiment: Growth inhibition of human UACC257 cells assessed as cell growth at 0.01 uM incubated for 48 hrs by sulforhodamine B assay relative to control; assay type: functional; conditions: UACC-257, 48 h, read-out: Activity
[28] = tested on: SF-539; experiment: Growth inhibition of human SF539 cells assessed as cell growth at 1 uM incubated for 48 hrs by sulforhodamine B assay relative to control; assay type: functional; conditions: SF-539, 48 h, read-out: Activity
[29] = read-out: LC50 (the source's name)
[30] = read-out: pLC50 (the source's name) (converted)

Q: For `COc1cc(Cl)cc(-c2nn(-c3cccc(NC(=O)Nc4ccc(Cl)c(C(F)(F)F)c4)c3)cc2-c2ccncc2)c1`, which growth at 100 µM [1] is on record?
A: -29%

Q: And the growth at 1 µM [2]?
A: 92%

Q: And the GI50 ([3]; read-out: GI50)?
A: 3.2 µM

Q: What about the CC50 [3, 29] of the same molecule?
A: > 100 µM

Q: What about the TGI ([3]; read-out: TGI) of the same molecule?
A: 29.1 µM

Q: What about the GI50 ([3]; read-out: pGI50 (converted)) of the same molecule?
A: 3.24 µM

Q: What about the CC50 [3, 30] of the same molecule?
A: > 100 µM

Q: What about the TGI ([3]; read-out: pTGI (converted)) of the same molecule?
A: 3.55 µM

Q: What about the IC50 [4] of the same molecule?
A: 0.34 µM

Q: What about the GI50 ([4]; read-out: GI50) of the same molecule?
A: 0.342 µM

Q: And the CC50 [4, 29]?
A: > 100 µM

Q: And the TGI ([4]; read-out: TGI)?
A: 21.2 µM

Q: What about the GI50 ([4]; read-out: pGI50 (converted)) of the same molecule?
A: 0.339 µM

Q: What about the CC50 [4, 30] of the same molecule?
A: > 100 µM

Q: And the TGI ([4]; read-out: pTGI (converted))?
A: 2.14 µM

Q: What about the growth at 1 µM [5] of the same molecule?
A: 78%

Q: What about the growth at 1 µM [6] of the same molecule?
A: 50%

Q: What about the growth at 100 µM [7] of the same molecule?
A: -75%

Q: And the GI50 ([8]; read-out: GI50)?
A: 1.33 µM

Q: What about the CC50 [8, 29] of the same molecule?
A: 0.05 µM

Q: What about the TGI ([8]; read-out: TGI) of the same molecule?
A: 34.7 µM

Q: And the GI50 ([8]; read-out: pGI50 (converted))?
A: 1.32 µM

Q: And the CC50 [8, 30]?
A: 9.12 µM

Q: What about the TGI ([8]; read-out: pTGI (converted)) of the same molecule?
A: 8.51 µM

Q: What about the growth at 1 µM [9] of the same molecule?
A: 45%

Q: And the growth at 0.01 µM [10]?
A: 98%

Q: What about the growth at 0.1 µM [11] of the same molecule?
A: 91%

Q: What about the GI50 ([12]; read-out: GI50) of the same molecule?
A: 1.06 µM

Q: What about the CC50 [12, 29] of the same molecule?
A: > 100 µM

Q: And the TGI ([12]; read-out: TGI)?
A: 43.8 µM

Q: And the GI50 ([12]; read-out: pGI50 (converted))?
A: 1.07 µM

Q: And the CC50 [12, 30]?
A: > 100 µM

Q: And the TGI ([12]; read-out: pTGI (converted))?
A: 4.37 µM

Q: What about the growth at 0.1 µM [13] of the same molecule?
A: 59%

Q: And the growth at 1 µM [14]?
A: 38%

Q: What about the growth at 100 µM [15] of the same molecule?
A: -43%

Q: What about the GI50 ([16]; read-out: GI50) of the same molecule?
A: 1.59 µM

Q: And the CC50 [16, 29]?
A: 15.2 µM

Q: What about the TGI ([16]; read-out: TGI) of the same molecule?
A: 42.7 µM

Q: And the GI50 ([16]; read-out: pGI50 (converted))?
A: 1.58 µM

Q: What about the CC50 [16, 30] of the same molecule?
A: 15.1 µM

Q: What about the TGI ([16]; read-out: pTGI (converted)) of the same molecule?
A: 9.77 µM

Q: And the GI50 ([17]; read-out: GI50)?
A: 1.77 µM

Q: What about the CC50 [17, 29] of the same molecule?
A: > 100 µM

Q: And the TGI ([17]; read-out: TGI)?
A: 11.5 µM

Q: And the GI50 ([17]; read-out: pGI50 (converted))?
A: 1.78 µM

Q: What about the CC50 [17, 30] of the same molecule?
A: > 100 µM

Q: And the TGI ([17]; read-out: pTGI (converted))?
A: 5.89 µM

Q: And the GI50 ([18]; read-out: GI50)?
A: 0.77 µM

Q: What about the CC50 [18, 29] of the same molecule?
A: 4.48 µM

Q: And the TGI ([18]; read-out: TGI)?
A: 40 µM

Q: What about the CC50 [18, 30] of the same molecule?
A: 44.7 µM

Q: What about the growth at 0.01 µM [19] of the same molecule?
A: 92%

Q: And the growth at 0.1 µM [20]?
A: 96%

Q: And the growth at 0.01 µM [21]?
A: 96%

Q: And the growth at 1 µM [22]?
A: 17%

Q: What about the growth at 0.01 µM [23] of the same molecule?
A: 92%

Q: And the GI50 ([24]; read-out: GI50)?
A: 2.58 µM

Q: And the CC50 [24, 29]?
A: 57.6 µM

Q: And the TGI ([24]; read-out: TGI)?
A: 14.4 µM

Q: And the GI50 ([24]; read-out: pGI50 (converted))?
A: 2.69 µM

Q: What about the CC50 [24, 30] of the same molecule?
A: 57.5 µM

Q: What about the TGI ([24]; read-out: pTGI (converted)) of the same molecule?
A: 4.27 µM

Q: What about the IC50 [25] of the same molecule?
A: 0.45 µM

Q: And the GI50 ([25]; read-out: GI50)?
A: 0.451 µM

Q: And the CC50 [25, 29]?
A: 54.6 µM

Q: What about the TGI ([25]; read-out: TGI) of the same molecule?
A: 25.5 µM

Q: And the GI50 ([25]; read-out: pGI50 (converted))?
A: 4.47 µM

Q: What about the CC50 [25, 30] of the same molecule?
A: 55 µM

Q: What about the TGI ([25]; read-out: pTGI (converted)) of the same molecule?
A: 28.8 µM

Q: And the growth at 1 µM [26]?
A: 58%

Q: What about the growth at 0.01 µM [27] of the same molecule?
A: 91%

Q: What about the growth at 1 µM [28] of the same molecule?
A: 75%
